In patent US20160106439A1, “PNEUMATIC TOURNIQUET” (BIONUMERIK PHARMACEUTICALS, INC., priority 2013, published 2016):
Read-outs that look alike come from different tables or passages of the source.

Key:
[1] = target: recombinant human MET (Homo sapiens, UniProt P08581); experiment: biochemical
Procedure: The substrate that was phosphorylated by the kinase, polyglutamate-tyrosine (PolyGT), was purchased from SignalChem (Cat. #P61-58, lot #R098-4).
All other reagents were purchased from Sigma Aldrich. A Tecan Ultra microplate reader with XFluor4 software (Tecan, V4.51) and RdrOle software (Tecan, V4.50) were used in this study.
MET phosphorylated the polyGT substrate using the ATP cofactor and produced ADP. […] For most assays, a stock of ATP (1 mM) and PolyGT (1 mg/mL) was used. […] The reactions, in microplate, were incubated for 60 minutes at 25° C. on a heat block. Following this 60 minute incubation, the kinase activity was evaluated using the ADP-Glo system from Promega that monitored ADP produced when MET phosphorylated the PolyGT substrate.
Kinase assays were run in triplicate or quadruplicate in microplates. Following this, the ADP-Glo detection system (Promega) was used to determine how much ADP had been produced. For 10 μL volume assays, to each microplate well containing 10 μL of kinase reaction was added ADP-Glo reagent (10 μL), plates were spun in a table top centrifuge (1000 rpm (123×g) for 1 minute) to ensure no reagent remained on the well walls, and then agitated for 1 minute to ensure optimal mixing. Plates were incubated at 25 C on a heat block for 40 minutes. Next, kinase detection reagent (20 μL) was added and, as above, centrifugation and agitation were repeated; plates were allowed to incubate at 25° C. on a heat block for 30 minutes. Following the incubation of the kinase detection reagent, plates were read on a Tecan Ultra microplate reader. The Tecan Ultra contained a built-in plate definition file for the whole area 96-well white Corning plates but a plate definition file for the half area 96-well Corning plates was created using the RdrOle component of the Tecan Ultra software.
Kinases vary in their ability to turnover ATP in vitro; therefore, the activity of the MET over a concentration range from 0.78 ng to 20 ng was evaluated in assay volumes of 10 μL. See, FIG. 7.
Therefore, each mole of polymer of 20,000 g/mole would contain approximately 28 moles of the glu-glu-glu-glu-tyr “subpolymer” in a 10 μL assay volume containing 1 μg of the polyGT substrate. […] This was a vast excess of possible tyrosine phosphorylation sites, ensuring that the substrate for phosphorylation was not rate limiting (assuming the higher mass range would produce an even larger excess of glu-glu-glu-glu-tyr “subpolymers”).
Data from MET assays run on the Tecan Ultra microplate spectrophotometer were collected in Microsoft Excel. Error calculations and graphical representations were performed in Microsoft Office Excel (Microsoft Corporation, Redmond, Wash., USA). Determination of IC25 and IC50 values were accomplished using Origin Lab software (OriginLab Corporation, Northampton, Mass., USA).

[2] = test system: human breast, ovarian and lymphoma cancer cell lines; experiment: Interference with paclitaxel induced apoptosis (PARP cleavage, Bcl-2 phosphorylation, DNA laddering); format: cell-based
From the text: Tavocept mediates the non-enzymatic xenobiotic modification of sulfur-containing amino acid residues (e.g., cysteine) on proteins. As an engineered, non-naturally occurring agent (i.e., xenobiotic), Tavocept is autocatalytic and requires no protein cofactor to cause the xenobiotic modification of cysteine, but appears to be specific for cysteine residues located within a particular structural context (i.e., not all cysteines in a protein are so modified). Tavocept-mediated, xenobiotic modification represents a novel mechanism of action for a cancer treating agent and can be compared to a degree with post-translational modifications of cysteine residues in proteins (see, Table 3, below).

Chain of recombinant human MET (P08581 956-1390 limits assumed): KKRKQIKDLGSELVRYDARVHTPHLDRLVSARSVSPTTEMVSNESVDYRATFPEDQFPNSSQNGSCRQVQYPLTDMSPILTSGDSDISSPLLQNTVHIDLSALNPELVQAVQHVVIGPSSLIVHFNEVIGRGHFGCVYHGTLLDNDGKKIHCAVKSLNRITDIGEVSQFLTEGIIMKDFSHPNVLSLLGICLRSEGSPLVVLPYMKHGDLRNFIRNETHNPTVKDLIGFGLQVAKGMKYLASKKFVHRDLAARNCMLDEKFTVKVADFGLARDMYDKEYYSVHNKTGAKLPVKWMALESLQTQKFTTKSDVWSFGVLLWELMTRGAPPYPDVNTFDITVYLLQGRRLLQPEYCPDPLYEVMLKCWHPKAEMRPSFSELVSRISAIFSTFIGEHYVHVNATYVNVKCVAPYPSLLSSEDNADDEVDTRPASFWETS

Which “greater inhibition of MET than Staurosporine alone” value (shortened to “greater inhibition”) ([1]; 10 μM ATP, MET 0.1 ng/μL, 5 mM Tavocept + 100 nM Staurosporine) does the source give for O=S(=O)([O-])CCSSCCS(=O)(=O)[O-].[Na+].[Na+] [Tavocept, disodium 2,2′-dithio-bis-ethane sulfonate] here?
The value was 22%.

And the “greater inhibition” value ([1]; 10 μM ATP, MET 0.1 ng/μL, 5 mM Tavocept + 300 nM Staurosporine)?
Its value is 8%.

And the “greater inhibition” value ([1]; 10 μM ATP, MET 0.1 ng/μL, 10 mM Tavocept + 100 nM Staurosporine)?
The value was 23%.

And the “greater inhibition” value ([1]; 10 μM ATP, MET 0.1 ng/μL, 10 mM Tavocept + 300 nM Staurosporine)?
The value was 8%.

And the IC50 ([1]; IC50, MET 2.5 ng/μL, ATP 100 μM)?
Its IC50 is greater than 40 mM.

And the IC50 ([1]; IC50 on MET, 10 μM ATP, 0.1 ng/μL MET)?
The IC50 was 15.2 ± 0.36 mM.

What about the IC50 ([1]; IC50 on MET, 10 μM ATP, 2.5 ng/μL MET, single experiment) of the same molecule?
The IC50 was 17.4 mM.

What about the IC50 ([1]; IC50 on MET, 100 μM ATP, 0.1 ng/μL MET, single experiment) of the same molecule?
The IC50 was 37.1 mM.

What about the IC50 ([1]; IC50 on MET, 100 μM ATP, 2.5 ng/μL MET) of the same molecule?
Its IC50 is greater than 40 mM.

And the inhibition at 5000 µM ([1]; read-out: greater inhibition of MET than Crizotinib alone, 10 μM ATP, MET 0.1 ng/μL, 5 mM Tavocept + 20 nM Crizotinib)?
Its inhibition at 5000 µM is 10%.

And the inhibition at 5000 µM ([1]; read-out: greater inhibition of MET than Crizotinib alone, 10 μM ATP, MET 0.1 ng/μL, 5 mM Tavocept + 40 nM Crizotinib)?
Its inhibition at 5000 µM is 6%.

And the inhibition at 10000 µM ([1]; read-out: greater inhibition of MET than Crizotinib alone, 10 μM ATP, MET 0.1 ng/μL, 10 mM Tavocept + 20 nM Crizotinib)?
Its inhibition at 10000 µM is 16%.

What about the inhibition at 10000 µM ([1]; read-out: greater inhibition of MET than Crizotinib alone, 10 μM ATP, MET 0.1 ng/μL, 10 mM Tavocept + 40 nM Crizotinib) of the same molecule?
Its inhibition at 10000 µM is 11%.

And the inhibition at 5000 µM ([1]; read-out: greater inhibition of MET than Crizotinib alone, 100 μM ATP, MET 2.5 ng/μL, 5 mM Tavocept + 45 nM Crizotinib)?
Its inhibition at 5000 µM is 15%.

What about the inhibition at 5000 µM ([1]; read-out: greater inhibition of MET than Crizotinib alone, 100 μM ATP, MET 2.5 ng/μL, 5 mM Tavocept + 90 nM Crizotinib) of the same molecule?
Its inhibition at 5000 µM is 10%.

What about the inhibition at 10000 µM ([1]; read-out: greater inhibition of MET than Crizotinib alone, 100 μM ATP, MET 2.5 ng/μL, 10 mM Tavocept + 45 nM Crizotinib) of the same molecule?
The inhibition at 10000 µM was 14%.

What about the inhibition at 10000 µM ([1]; read-out: greater inhibition of MET than Crizotinib alone, 100 μM ATP, MET 2.5 ng/μL, 10 mM Tavocept + 90 nM Crizotinib) of the same molecule?
Its inhibition at 10000 µM is 10%.

What about the inhibition at 5000 µM ([1]; read-out: greater inhibition of MET than Staurosporine alone, 10 μM ATP, MET 0.1 ng/μL, 5 mM Tavocept + 100 nM Staurosporine) of the same molecule?
The inhibition at 5000 µM was 22%.

And the inhibition at 5000 µM ([1]; read-out: greater inhibition of MET than Staurosporine alone, 10 μM ATP, MET 0.1 ng/μL, 5 mM Tavocept + 300 nM Staurosporine)?
The inhibition at 5000 µM was 8%.

And the inhibition at 10000 µM ([1]; read-out: greater inhibition of MET than Staurosporine alone, 10 μM ATP, MET 0.1 ng/μL, 10 mM Tavocept + 100 nM Staurosporine)?
The inhibition at 10000 µM was 23%.

And the inhibition at 10000 µM ([1]; read-out: greater inhibition of MET than Staurosporine alone, 10 μM ATP, MET 0.1 ng/μL, 10 mM Tavocept + 300 nM Staurosporine)?
The inhibition at 10000 µM was 8%.

What about the “interference with paclitaxel induced apoptosis” value [2] of the same molecule?
Its value is “does not interfere”.
